Source: patent US12686854B2, “Method for enhancing secretory function of mesenchymal stem cells and application thereof” (SHANDONG UNIVERSITY, priority 2020, dated 2026)

What was measured:
PI3K-AKT pathway = test: In vitro ovary culture with VCD injury, Western blot of p-AKT and AKT; type: cell-based; settings: PD4 mouse ovaries, 4 days in vitro culture, VCD 30 μM injury
Method: • S1. The concentrated conditioned medium was collected as described in Example 1. • S2. The solution for dissecting ovary containing 10% FBS and 1% penicillin-streptomycin was prepared in L15 medium. • S3. Ovarian culture preparation was performed. The medium of control group, VCD (30 μM) group, VCD+MSC-CM group and VCD+HA/MSC-CM group were prepared, and the embedded culture chamber was placed in 6-well plate containing 1.5 mL medium per well for 2 hours. • S4. The ovaries of postnatal day 4 (PD4) mice were isolated in freshly prepared dissecting solution under stereoscope. The surrounding tissues and ovarian capsule were gently peeled off, which should move quickly and not damage ovarian tissues. • S5. The obtained ovaries were washed three times with dissecting solution and transferred to an operation table as soon as possible. Before the ovaries were placed in the chambers of each group, the ovaries were washed three times with the corresponding medium of each group. After washing, they were placed in the middle of the culture chambers of each group and placed at intervals. The solution was changed on the second day. After 4 days of in vitro culture, the ovarian tissues were collected to extract protein. • S6. The changes of the expression of p-AKT and AKT protein were detected by Western blot.

[1] = system: germ cells in mouse ovaries; test: In vitro ovary culture with VCD injury, DDX4 immunohistochemical staining of germ cells; type: cell-based; settings: 8 days in vitro culture

Structure (SMILES): C1CC2OC2CC1C1CO1 (stereo not drawn) [VCD, 4-vinylcyclonhexene diepoxide]
- expression level of p-AKT (PI3K-AKT pathway): decreased significantly
- ovarian volume ([1]; VCD 30 μM): decreased
- number of germ cells (DDX4 staining) ([1]; VCD 30 μM injury): decreased significantly
